Experimental data published in paper PMC8286840, “Identifying SARS-CoV-2 antiviral compounds by screening for small molecule inhibitors of Nsp3 papain-like protease” (Biochemical Journal, 2021).
Counter-ions that a name gives are not always drawn. Like-named read-outs stand apart in the source and are kept apart here.

What was measured:
[1] = molecular target: T1, SARS-CoV-2 PLpro (nsp3 1564–1878) (Severe acute respiratory syndrome coronavirus 2, UniProt P0DTD1); test: biochemical; design: FRET-quenched peptide (Pro3) cleavage by PLpro, 10 min pre-incubation, slope over 20 min, normalised to no-compound control; conditions: low concentration screen, read-out: % of control remaining
[2] = molecular target: T1, SARS-CoV-2 PLpro (nsp3 1564–1878); test: biochemical; design: FRET-quenched peptide (Pro3) cleavage by PLpro, 10 min pre-incubation, slope over 20 min, normalised to no-compound control; conditions: high concentration screen, read-out: % of control remaining

With `CC(CN)C(=O)O` (centres unmarked) [3-Amino-2-methylpropanoic acid] the remaining activity at 1.25 µM ([1]; Well no.=6787) was 101% and the remaining activity at 3.75 µM ([2]; Well no.=6787) was 97.6%.

`CC(C)C(N)CC(=O)O` (centres unmarked) [3-Amino-4-methylpentanoic acid] was tested, and the remaining activity at 1.25 µM ([1]; Well no.=6403) was 103% and the remaining activity at 3.75 µM ([2]; Well no.=6403) was 105%.

With `O=C(O)/C=C/C(=O)O` [3-Aminopropionitrile fumarate] the remaining activity at 1.25 µM ([1]; Well no.=251) was 92.7% and the remaining activity at 3.75 µM ([2]; Well no.=251) was 93.7%.

`NCCCP(=O)(O)O` [3-Aminopropylphosphonic acid] showed a remaining activity at 1.25 µM ([1]; Well no.=357) of 90.6% and a remaining activity at 3.75 µM ([2]; Well no.=357) of 93.7%.

`O=C(O)/C=C/c1c[nH]c2ccccc12` [3-Beta-Indoleacrylic acid] gave a remaining activity at 1.25 µM ([1]; Well no.=3773) of 99% and a remaining activity at 3.75 µM ([2]; Well no.=3773) of 101%.

Molecule `O=[N+]([O-])c1cccc2c(Br)[nH]nc12` [3-Bromo-7-nitroindazole] has a remaining activity at 1.25 µM ([1]; Well no.=27) of 98.5% and a remaining activity at 3.75 µM ([2]; Well no.=27) of 96.1%.

Molecule `N[C@@H](Cc1ccc(O)c(Cl)c1)C(=O)O` [3-Chloro-L-tyrosine] has a remaining activity at 1.25 µM ([1]; Well no.=7491) of 101% and a remaining activity at 3.75 µM ([2]; Well no.=7491) of 101%.

For `Nc1nccc2c1ncn2[C@@H]1O[C@H](CO)[C@@H](O)[C@H]1O` [3-Deazaadenosine (hydrochloride)], the remaining activity at 1.25 µM ([1]; Well no.=7808) was 96.7% and the remaining activity at 3.75 µM ([2]; Well no.=7808) was 92.6%.

Molecule `Nc1c(O)cccc1C(=O)O` [3-Hydroxyanthranilic acid] has a remaining activity at 1.25 µM ([1]; Well no.=6535) of 102% and a remaining activity at 3.75 µM ([2]; Well no.=6535) of 91.9%.

`NNCc1cccc(O)c1` [3-Hydroxybenzylhydrazine dihydrochloride] showed a remaining activity at 1.25 µM ([1]; Well no.=568) of 104% and a remaining activity at 3.75 µM ([2]; Well no.=568) of 97.9%.

`CC(O)CC(=O)O` (centres unmarked) [3-Hydroxybutyric acid] was tested, and the remaining activity at 1.25 µM ([1]; Well no.=7117) was 103% and the remaining activity at 3.75 µM ([2]; Well no.=7117) was 99%.

Work on `O=C(O)CNC(=O)c1cccc(O)c1` [3-Hydroxyhippuric acid] yielded a remaining activity at 1.25 µM ([1]; Well no.=7219) of 102% and a remaining activity at 3.75 µM ([2]; Well no.=7219) of 99.6%.

`CC(C)(O)CC(=O)O` [3-Hydroxyisovaleric acid] was tested, and the remaining activity at 1.25 µM ([1]; Well no.=6925) was 108% and the remaining activity at 3.75 µM ([2]; Well no.=6925) was 98.6%.

`O=C(O)C(O)c1cccc(O)c1` (centres unmarked) [3-Hydroxymandelic Acid] gave a remaining activity at 1.25 µM ([1]; Well no.=6879) of 100% and a remaining activity at 3.75 µM ([2]; Well no.=6879) of 98.2%.

With `O=C(O)c1ncccc1O` [3-Hydroxypicolinic acid] the remaining activity at 1.25 µM ([1]; Well no.=6885) was 68.8% and the remaining activity at 3.75 µM ([2]; Well no.=6885) was 92.3%.

For `O=C(O)Cc1c[nH]c2ccccc12` [3-Indoleacetic acid], the remaining activity at 1.25 µM ([1]; Well no.=6255) was 108% and the remaining activity at 3.75 µM ([2]; Well no.=6255) was 113%.

Molecule `O=C(O)CCc1c[nH]c2ccccc12` [3-Indolepropionic acid] has a remaining activity at 1.25 µM ([1]; Well no.=6597) of 99.7% and a remaining activity at 3.75 µM ([2]; Well no.=6597) of 102%.

`N[C@@H](Cc1ccc(O)c(I)c1)C(=O)O` [3-Iodo-L-tyrosine] showed a remaining activity at 1.25 µM ([1]; Well no.=919) of 103% and a remaining activity at 3.75 µM ([2]; Well no.=919) of 104%.

`CC(C)Cn1c(=O)n(C)c(=O)c2[nH]cnc21` [3-Isobutyl-1-methylxanthine] showed a remaining activity at 1.25 µM ([1]; Well no.=773) of 108% and a remaining activity at 3.75 µM ([2]; Well no.=773) of 106%.

`COc1cccc(C(=O)O)c1` [3-Methoxybenzoic acid] showed a remaining activity at 1.25 µM ([1]; Well no.=6587) of 100% and a remaining activity at 3.75 µM ([2]; Well no.=6587) of 98.4%.

`COc1cc(CCN)ccc1O` [3-Methoxytyramine] was tested, and the remaining activity at 1.25 µM ([1]; Well no.=6773) was 107% and the remaining activity at 3.75 µM ([2]; Well no.=6773) was 97.4%.

`CCC(C)C(=O)C(=O)O` (centres unmarked) [3-Methyl-2-oxovaleric acid] was tested, and the remaining activity at 1.25 µM ([1]; Well no.=6977) was 100% and the remaining activity at 3.75 µM ([2]; Well no.=6977) was 101%.

For `Cc1nnc2ccc(-c3cccc(C(F)(F)F)c3)nn12` [3-Methyl-6-(3-[trifluoromethyl]phenyl)-1,2,4-triazolo[4,3-b]pyridazine], the remaining activity at 1.25 µM ([1]; Well no.=828) was 106% and the remaining activity at 3.75 µM ([2]; Well no.=828) was 105%.

With `Cn1cnc(N)c2ncnc1-2` [3-Methyladenine] the remaining activity at 1.25 µM ([1]; Well no.=5079) was 104%, the remaining activity at 1.25 µM ([1]; Well no.=7447) was 103% and the remaining activity at 3.75 µM ([2]; Well no.=7447) was 106%.

`CC(CCC(=O)O)CC(=O)O` (centres unmarked) [3-Methyladipic acid] showed a remaining activity at 1.25 µM ([1]; Well no.=6533) of 107% and a remaining activity at 3.75 µM ([2]; Well no.=6533) of 98.2%.

With `Cn1c(=N)ccn([C@@H]2O[C@H](CO)[C@@H](O)[C@H]2O)c1=O` [3-Methylcytidine] the remaining activity at 1.25 µM ([1]; Well no.=7960) was 97.2% and the remaining activity at 3.75 µM ([2]; Well no.=7960) was 98.7%.

Molecule `CC(CC(=O)O)CC(=O)O` [3-Methylglutaric acid] has a remaining activity at 1.25 µM ([1]; Well no.=6835) of 100% and a remaining activity at 3.75 µM ([2]; Well no.=6835) of 99.3%.

With `Cn1c(=O)ccn([C@@H]2O[C@H](CO)[C@@H](O)[C@H]2O)c1=O` [3-Methyluridine] the remaining activity at 1.25 µM ([1]; Well no.=7067) was 93.2%, the remaining activity at 1.25 µM ([1]; Well no.=7918) was 101% and the remaining activity at 3.75 µM ([2]; Well no.=7067) was 91.5%. It also gave a remaining activity at 3.75 µM ([2]; Well no.=7918) of 101%.

In the case of `Cn1c(=O)[nH]c(=O)c2[nH]cnc21` [3-Methylxanthine], the remaining activity at 1.25 µM ([1]; Well no.=6777) is reported as 106% and the remaining activity at 3.75 µM ([2]; Well no.=6777) is reported as 102%.

In the case of `N=c1c[n+](N2CCOCC2)[n-]o1` [3-Morpholinosydnonimine hydrochloride], the remaining activity at 1.25 µM ([1]; Well no.=1041) is reported as 102% and the remaining activity at 3.75 µM ([2]; Well no.=1041) is reported as 103%.

For `O=C(O)CC[N+](=O)[O-]` [3-Nitropropionic acid], the remaining activity at 1.25 µM ([1]; Well no.=953) was 100% and the remaining activity at 3.75 µM ([2]; Well no.=953) was 99.4%.

For `O=C(O)CC(=O)CC(=O)O` [3-Oxopentanedioic acid], the remaining activity at 1.25 µM ([1]; Well no.=7499) was 97.9% and the remaining activity at 3.75 µM ([2]; Well no.=7499) was 99.7%.

`NCC#Cc1ccccc1` [3-Phenylpropargylamine hydrochloride] gave a remaining activity at 1.25 µM ([1]; Well no.=1405) of 103% and a remaining activity at 3.75 µM ([2]; Well no.=1405) of 101%.

`CN1[C@@H]2CC[C@H]1C[C@@H](OC(=O)c1cc(Cl)cc(Cl)c1)C2` [3-Tropanyl-3,5-dichlorobenzoate] was tested, and the remaining activity at 1.25 µM ([1]; Well no.=1278) was 110% and the remaining activity at 3.75 µM ([2]; Well no.=1278) was 108%.

`C[N+]1(C)C2CCC1CC(OC(=O)c1c[nH]c3ccccc13)C2` (centres unmarked) [3-Tropanylindole-3-carboxylate methiodide] gave a remaining activity at 1.25 µM ([1]; Well no.=1520) of 91.9% and a remaining activity at 3.75 µM ([2]; Well no.=1520) of 90.6%.

`CCOC(OCC)P(=O)(O)CCCNCc1ccc(Cl)c(Cl)c1` [3-[(3,4-dichlorobenzyl)amino]propyl(diethoxymethyl)phosphinic acid] was tested, and the remaining activity at 1.25 µM ([1]; Well no.=6020) was 98.7% and the remaining activity at 3.75 µM ([2]; Well no.=6020) was 93.6%.

`C[C@]12CC[C@@H](O)C[C@@H]1CC[C@@H]1[C@@H]2CC[C@]2(C)[C@@H](C(=O)CO)CC[C@@H]12` [3-alpha,21-Dihydroxy-5-alpha-pregnan-20-one] gave a remaining activity at 1.25 µM ([1]; Well no.=856) of 99.8% and a remaining activity at 3.75 µM ([2]; Well no.=856) of 104%.
